Measurements as given in patent publication US10829520B2, “Beta-hairpin peptidomimetics” (POLYPHOR AG, priority 2015, dated 2020).
Where a SMILES comes first, the peptide text is derived from it. Bridges are numbered along the chain shown (N, C = ends). [ ]: non-standard residue; d: D form. dHyp = O=C(O)[C@H]1C[C@H](O)CN1; Pen = CC(C)(S)[C@H](N)C(=O)O; Tle = CC(C)(C)[C@H](N)C(=O)O; NMeC = CN[C@@H](CS)C(=O)O; dDab = NCC[C@@H](N)C(=O)O; Nle = CCCC[C@H](N)C(=O)O; Orn = NCCC[C@H](N)C(=O)O; Dab = NCC[C@H](N)C(=O)O; Dap = NC[C@H](N)C(=O)O

Tests used:
Type in all cases: cell-based
[1] = tested on: human red blood cells (hRBC); test: Hemolysis of human red blood cells; details: red cells of human, 1 h, 100 μg/mL
Method in brief: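 Hemolysis was read as supernatant absorbance at 540 nm and expressed as a percentage of Triton X-100 (2.5%) lysis. Washed human red cells (20% v/v) had been exposed to each peptide at 100 μg/mL for 1 h at 37° C.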

[2] = tested on: Pseudomonas aeruginosa ATCC 27853; details: ATCC 27853
Method in brief: (§1)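 Using the CLSI reference method, each strain at approx. 10^6 CFU/mL was exposed to serially diluted peptide in MH-II broth with 0.002% P-80. After 18-20 h at 35° C, the lowest concentration showing no visible growth gave the MIC.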

[3] = tested on: Klebsiella pneumoniae SSI #3010; details: SSI #3010
Method in brief: as §1

[4] = tested on: Klebsiella pneumoniae 968733; details: 968733
[5] = tested on: Acinetobacter baumannii DSM 30008; details: DSM 30008
Method in brief: as §1

[6] = tested on: Acinetobacter baumannii 872842; details: 872842
[7] = tested on: Escherichia coli 926415; details: 926415
[8] = tested on: Escherichia coli ATCC 25922; details: ATCC 25922
Method in brief: as §1

| SMILES | Hemolysis at 100 μg/mL [1] | Pseudomonas aeruginosa ATCC 27853 MIC [2] | Klebsiella pneumoniae SSI #3010 MIC [3] | Klebsiella pneumoniae 968733 MIC [4] | Acinetobacter baumannii DSM 30008 MIC [5] | Acinetobacter baumannii 872842 MIC [6] | Escherichia coli 926415 MIC [7] | Escherichia coli ATCC 25922 MIC [8] |
| --- | --- | --- | --- | --- | --- | --- | --- | --- |
| CCCC[C@@H]1NC(=O)[C@@H]2CCCN2C(=O)[C@H]2CCCN2C(=O)[C@H](CO)NC(=O)[C@H](CO)NC(=O)[C@H](C(C)(C)C)NC(=O)[C@H](CCN)NC(=O)[C@H](Cc2c[nH]c3ccccc23)NC(=O)[C@@H](N)CSSC[C@@H](C(=O)N[C@H](Cc2c[nH]c3ccccc23)C(=O)N[C@@H](CCN)C(=O)N[C@H]2CCNC(=O)[C@H]([C@@H](C)O)NC(=O)[C@H](CCN)NC(=O)[C@H](CCN)NC(=O)[C@H](CC(C)C)NC(=O)[C@@H](Cc3ccccc3)NC(=O)[C@H](CCN)NC2=O)NC(=O)[C@H](CCCN)NC(=O)[C@H](CCN)NC(=O)[C@H](Cc2ccc(O)cc2)NC(=O)[C@H](CO)NC1=O [Ex. 202] (H-CW[Dab][Tle]SS[dP]P[Nle]SY[Dab][Orn]C[dW][Dab][Dab][Dab][dF]L[Dab][Dab]T; disulfide 1-14; lactam 17-C) | 2% | 1 µg/mL | 1 µg/mL | 2 µg/mL | 1 µg/mL | 0.5 µg/mL | 0.5 µg/mL | 0.25 µg/mL |
| CCCC[C@@H]1NC(=O)[C@@H]2CCCN2C(=O)[C@H]2CCCN2C(=O)[C@H](CO)NC(=O)[C@H](CO)NC(=O)[C@H](C(C)(C)C)NC(=O)[C@H](CCN)NC(=O)[C@H](Cc2c[nH]c3ccccc23)NC(=O)[C@@H](N)CSSC[C@@H](C(=O)N[C@@H](CCC(N)=O)C(=O)N[C@H](CCN)C(=O)N[C@H]2CCNC(=O)[C@H]([C@@H](C)O)NC(=O)[C@H](CCN)NC(=O)[C@H](CCN)NC(=O)[C@H](CC(C)C)NC(=O)[C@@H](Cc3ccccc3)NC(=O)[C@H](CCN)NC2=O)NC(=O)[C@H](CCCN)NC(=O)[C@H](CCN)NC(=O)[C@H](Cc2ccc(O)cc2)NC(=O)[C@H](CO)NC1=O [Ex. 203] (H-CW[Dab][Tle]SS[dP]P[Nle]SY[Dab][Orn]CQ[dDab][Dab][Dab][dF]L[Dab][Dab]T; disulfide 1-14; lactam 17-C) | <1% | 1 µg/mL | 1 µg/mL | 4 µg/mL | 2 µg/mL | 0.5 µg/mL | 0.25 µg/mL | 0.5 µg/mL |
| CCCC[C@@H]1NC(=O)[C@@H]2CCCN2C(=O)[C@H]2CCCN2C(=O)[C@H](CO)NC(=O)[C@H](CO)NC(=O)[C@H](C(C)(C)C)NC(=O)[C@H](CCN)NC(=O)[C@H](Cc2c[nH]c3ccccc23)NC(=O)[C@@H](N)CSSC[C@@H](C(=O)N[C@@H](C(=O)N[C@H](CCN)C(=O)N[C@H]2CCNC(=O)[C@H]([C@@H](C)O)NC(=O)[C@H](CCN)NC(=O)[C@H](CCN)NC(=O)[C@H](CC(C)C)NC(=O)[C@@H](Cc3ccccc3)NC(=O)[C@H](CCN)NC2=O)[C@H](C)O)NC(=O)[C@H](CCCN)NC(=O)[C@H](CCN)NC(=O)[C@H](Cc2ccc(O)cc2)NC(=O)[C@H](CO)NC1=O [Ex. 204] (H-CW[Dab][Tle]SS[dP]P[Nle]SY[Dab][Orn]C[dT][dDab][Dab][Dab][dF]L[Dab][Dab]T; disulfide 1-14; lactam 17-C) | 3% | 0.5 µg/mL | 0.25 µg/mL | 0.5 µg/mL | 0.5 µg/mL | 0.25 µg/mL | 0.125 µg/mL | 0.25 µg/mL |
| CCCC[C@@H]1NC(=O)[C@@H]2CCCN2C(=O)[C@H]2CCCN2C(=O)[C@H](CO)NC(=O)[C@H](CO)NC(=O)[C@H](C(C)(C)C)NC(=O)[C@H](CCN)NC(=O)[C@H](Cc2c[nH]c3ccccc23)NC(=O)[C@@H](N)CSSC[C@@H](C(=O)N[C@@H](CCN)C(=O)N[C@H](CCN)C(=O)N[C@H]2CCNC(=O)[C@H]([C@@H](C)O)NC(=O)[C@H](CCN)NC(=O)[C@H](CCN)NC(=O)[C@H](CC(C)C)NC(=O)[C@@H](Cc3ccccc3)NC(=O)[C@H](CCN)NC2=O)NC(=O)[C@H](CCCN)NC(=O)[C@H](CCN)NC(=O)[C@H](Cc2ccc(O)cc2)NC(=O)[C@H](CO)NC1=O [Ex. 205] (H-CW[Dab][Tle]SS[dP]P[Nle]SY[Dab][Orn]C[Dab][dDab][Dab][Dab][dF]L[Dab][Dab]T; disulfide 1-14; lactam 17-C) | <1% | 0.25 µg/mL | 2 µg/mL | 2 µg/mL | 2 µg/mL | 0.5 µg/mL | 0.5 µg/mL | 0.25 µg/mL |
| CCCC[C@@H]1NC(=O)[C@@H]2CCCN2C(=O)[C@H]2CCCN2C(=O)[C@H](CO)NC(=O)[C@H](Cc2ccc(O)cc2)NC(=O)[C@H](C(C)(C)C)NC(=O)[C@H](CCN)NC(=O)[C@H](Cc2c[nH]c3ccccc23)NC(=O)[C@@H](NC)CSSC[C@@H](C(=O)N[C@H](CCN)C(=O)N[C@H]2CCNC(=O)[C@H]([C@@H](C)O)NC(=O)[C@H](CCN)NC(=O)[C@H](CCN)NC(=O)[C@H](CC(C)C)NC(=O)[C@@H](CC(C)C)NC(=O)[C@H](CCN)NC2=O)NC(=O)[C@H](CCCN)NC(=O)[C@H](CCN)NC(=O)[C@H](Cc2ccc(O)cc2)NC(=O)[C@H](CO)NC1=O [Ex. 207] (H-[NMeC]W[Dab][Tle]YS[dP]P[Nle]SY[Dab][Orn]C[dDab][Dab][Dab][dL]L[Dab][Dab]T; disulfide 1-14; lactam 16-C) | 1% | 2 µg/mL | 0.125 µg/mL | 0.5 µg/mL | 2 µg/mL | 1 µg/mL | 0.25 µg/mL | 0.125 µg/mL |
| CC(C)C[C@@H]1NC(=O)[C@@H](CC(C)C)NC(=O)[C@H](CCN)NC(=O)[C@@H](NC(=O)[C@@H](CCN)NC(=O)[C@@H]2CSSC(C)(C)[C@H](N)C(=O)N[C@@H](Cc3c[nH]c4ccccc34)C(=O)N[C@@H](CCN)C(=O)N[C@@H](C(C)C)C(=O)N[C@@H](CO)C(=O)N[C@@H](CO)C(=O)N3C[C@@H](O)C[C@@H]3C(=O)N3CCC[C@H]3C(=O)N[C@@H](CC(C)C)C(=O)N[C@@H](CO)C(=O)N[C@@H](Cc3ccc(O)cc3)C(=O)N[C@@H](CCN)C(=O)N[C@@H](CCCN)C(=O)N2)CCNC(=O)[C@H]([C@@H](C)O)NC(=O)[C@H](CCN)NC(=O)[C@H](CCN)NC1=O [Ex. 208] (H-[Pen]W[Dab]VSS[dHyp]PLSY[Dab][Orn]C[dDab][Dab][Dab][dL]L[Dab][Dab]T; disulfide 1-14; lactam 16-C) | <1% | 2 µg/mL | 1 µg/mL | 8 µg/mL | 1 µg/mL | 2 µg/mL | 0.5 µg/mL | 0.25 µg/mL |
| CC(C)C[C@@H]1NC(=O)[C@@H](CC(C)C)NC(=O)[C@H](CCN)NC(=O)[C@@H](NC(=O)[C@@H](CCN)NC(=O)[C@@H]2CSSC[C@H](N)C(=O)N[C@@H](Cc3c[nH]c4ccccc34)C(=O)N[C@@H](CCN)C(=O)N[C@@H](C(C)C)C(=O)N[C@@H]([C@@H](C)O)C(=O)N[C@@H](Cc3ccc(O)cc3)C(=O)N3CCC[C@@H]3C(=O)N3CCC[C@H]3C(=O)N[C@@H](CC(C)C)C(=O)N[C@@H](CO)C(=O)N[C@@H](Cc3ccc(O)cc3)C(=O)N[C@@H](CCN)C(=O)N[C@@H](CCN)C(=O)N2)CCNC(=O)[C@H]([C@@H](C)O)NC(=O)[C@H](CCN)NC(=O)[C@H](CCN)NC1=O [Ex. 209] (H-CW[Dab]VTY[dP]PLSY[Dab][Dab]C[dDab][Dab][Dab][dL]L[Dab][Dab]T; disulfide 1-14; lactam 16-C) | 3% | 1 µg/mL | 0.25 µg/mL | 0.5 µg/mL | 0.5 µg/mL | 0.5 µg/mL | 0.25 µg/mL | 0.125 µg/mL |
| CCCC[C@@H]1NC(=O)[C@@H]2CCCN2C(=O)[C@H]2CCCN2C(=O)[C@H](CO)NC(=O)[C@H](C)NC(=O)[C@H](C(C)(C)C)NC(=O)[C@@H]2CCC(=O)NCC[C@H](NC(=O)[C@H](Cc3ccc(O)cc3)NC(=O)[C@H](CN)NC1=O)C(=O)N[C@@H](CCCN)C(=O)N[C@H](C(=O)N[C@H](CCN)C(=O)N[C@H]1CCNC(=O)[C@H]([C@@H](C)O)NC(=O)[C@H](CCN)NC(=O)[C@H](CCN)NC(=O)[C@H](CC(C)C)NC(=O)[C@@H](Cc3ccccc3)NC(=O)[C@H](CCN)NC1=O)CSSC[C@H](N)C(=O)N[C@@H](Cc1c[nH]c3ccccc13)C(=O)N2 [Ex. 210] (H-CWE[Tle]AS[dP]P[Nle][Dap]Y[Dab][Orn]C[dDab][Dab][Dab][dF]L[Dab][Dab]T; disulfide 1-14; lactam 3-12, 16-C) | 1% | 1 µg/mL | 0.5 µg/mL | 4 µg/mL | 1 µg/mL | 2 µg/mL | 0.5 µg/mL | 0.25 µg/mL |
